ChEMBL document CHEMBL1201862, “PubChem BioAssay data set” (2004)
“And” between values parts separate entries of the source, which are not always exact repeats. Equal entries are not always repeated.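 These data come from cells grown in 96-well plates and exposed to compound for 48 hours at five concentrations. At the GI50, growth is halved.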 The source made the active and inactive calls. Cut-off read from the data, not from the text of the source: active = GI50 up to about 1.1 µM and inactive = higher. Starred links: 1 amine or outer side, 2 acyl side, 3 side chain; linkers in the order of their positions; H or OH if unused. Positions of bridges follow the written chain, without caps; N, C: chain ends. Non-standard residues stand in square brackets, D forms with d. Residues, ends and D or L forms follow the SMILES beside them. Chains are numbered I, II in the order given. Actinocin(9to1) = Cc1c2oc3c(C)ccc(C(=O)[*:1])c3nc-2c(C(=O)[*:2])c(N)c1=O; NMeT = CN[CH](C(=O)O)[CH](C)O; Sar = CNCC(=O)O

Experiments:
Assay in all cases: DTP human tumour cell line panel, 48 h
HCT-15 = tested on: HCT-15
EKVX = tested on: EKVX
SR = tested on: SR
Malme-3M = tested on: Malme-3M
A549 = tested on: A549
UO-31 = tested on: UO-31
KM12 = tested on: KM12
NCI-H460 = tested on: NCI-H460
CCRF-CEM = tested on: CCRF-CEM
IGROV-1 = tested on: IGROV-1
SK-MEL-28 = tested on: SK-MEL-28
SN12C = tested on: SN12C
HT-29 = tested on: HT-29
SNB-75 = tested on: SNB-75
HOP-62 = tested on: HOP-62
DU-145 = tested on: DU-145
CAKI-1 = tested on: CAKI-1
SK-MEL-2 = tested on: SK-MEL-2
SNB-19 = tested on: SNB-19
SF-539 = tested on: SF-539
NCI-H23 = tested on: NCI-H23
HCT-116 = tested on: HCT-116
K562 = tested on: K562
Hs-578T = tested on: Hs-578T
MDA-N = tested on: MDA-N
HL-60 = tested on: HL-60
PC-3 = tested on: PC-3
OVCAR-4 = tested on: OVCAR-4
NCI-H522 = tested on: NCI-H522
MDA-MB-435 = tested on: MDA-MB-435
MDA-MB-231 = tested on: MDA-MB-231
RXF 393 = tested on: RXF 393
U-251 = tested on: U-251
OVCAR-5 = tested on: OVCAR-5
LOX IMVI = tested on: LOX IMVI
NCI/ADR-RES = tested on: NCI/ADR-RES
786-0 = tested on: 786-0
COLO 205 = tested on: COLO 205
SW-620 = tested on: SW-620
NCI-H226 = tested on: NCI-H226
RPMI-8226 = tested on: RPMI-8226
OVCAR-8 = tested on: OVCAR-8
SK-MEL-5 = tested on: SK-MEL-5
M14 = tested on: M14
TK-10 = tested on: TK-10
A498 = tested on: A498
HOP-92 = tested on: HOP-92
SF-268 = tested on: SF-268
ACHN = tested on: ACHN
UACC-257 = tested on: UACC-257
MOLT-4 = tested on: MOLT-4
UACC-62 = tested on: UACC-62
HCC 2998 = tested on: HCC 2998
OVCAR-3 = tested on: OVCAR-3
MCF7 = tested on: MCF7

Question: With `O=c1[nH]n(Cc2ccccc2Cl)c2ccccc12` as the compound, how does the GI50 (HCT-15) read?
Answer: > 100 µM

Question: And the GI50 (EKVX)?
Answer: > 100 µM (inactive)

Question: And the GI50 (SR)?
Answer: > 100 µM (inactive)

Question: What about the GI50 (Malme-3M) of the same compound?
Answer: > 100 µM (inactive)

Question: What about the GI50 (A549) of the same compound?
Answer: > 100 µM (inactive)

Question: What about the GI50 (UO-31) of the same compound?
Answer: > 100 µM (inactive)

Question: And the GI50 (KM12)?
Answer: > 100 µM (inactive)

Question: And the GI50 (NCI-H460)?
Answer: > 100 µM (inactive)

Question: What about the GI50 (CCRF-CEM) of the same compound?
Answer: > 100 µM (inactive)

Question: What about the GI50 (IGROV-1) of the same compound?
Answer: > 100 µM (inactive)

Question: What about the GI50 (SK-MEL-28) of the same compound?
Answer: > 100 µM (inactive)

Question: What about the GI50 (SN12C) of the same compound?
Answer: > 100 µM (inactive)

Question: What about the GI50 (HT-29) of the same compound?
Answer: > 100 µM (inactive)

Question: What about the GI50 (SNB-75) of the same compound?
Answer: 45.5 µM (inactive)

Question: What about the GI50 (HOP-62) of the same compound?
Answer: > 100 µM (inactive)

Question: What about the GI50 (DU-145) of the same compound?
Answer: > 100 µM (inactive)

Question: And the GI50 (CAKI-1)?
Answer: > 100 µM (inactive)

Question: What about the GI50 (SK-MEL-2) of the same compound?
Answer: > 100 µM (inactive)

Question: What about the GI50 (SNB-19) of the same compound?
Answer: > 100 µM (inactive)

Question: What about the GI50 (SF-539) of the same compound?
Answer: > 100 µM (inactive)

Question: And the GI50 (NCI-H23)?
Answer: > 100 µM (inactive)

Question: And the GI50 (HCT-116)?
Answer: > 100 µM (inactive)

Question: And the GI50 (K562)?
Answer: > 100 µM (inactive)

Question: What about the GI50 (Hs-578T) of the same compound?
Answer: > 100 µM (inactive)

Question: And the GI50 (MDA-N)?
Answer: > 100 µM (inactive)

Question: What about the GI50 (HL-60) of the same compound?
Answer: > 100 µM (inactive)

Question: And the GI50 (PC-3)?
Answer: > 100 µM (inactive)

Question: And the GI50 (OVCAR-4)?
Answer: > 100 µM (inactive)

Question: And the GI50 (NCI-H522)?
Answer: > 100 µM (inactive)

Question: And the GI50 (MDA-MB-435)?
Answer: > 100 µM (inactive)

Question: And the GI50 (MDA-MB-231)?
Answer: > 100 µM (inactive)

Question: What about the GI50 (RXF 393) of the same compound?
Answer: > 10 µM (inactive)

Question: What about the GI50 (U-251) of the same compound?
Answer: > 100 µM (inactive)

Question: And the GI50 (OVCAR-5)?
Answer: > 100 µM (inactive)

Question: What about the GI50 (LOX IMVI) of the same compound?
Answer: > 100 µM (inactive)

Question: What about the GI50 (NCI/ADR-RES) of the same compound?
Answer: > 100 µM (inactive)

Question: What about the GI50 (786-0) of the same compound?
Answer: > 100 µM (inactive)

Question: And the GI50 (COLO 205)?
Answer: > 100 µM (inactive)

Question: What about the GI50 (SW-620) of the same compound?
Answer: > 100 µM (inactive)

Question: And the GI50 (NCI-H226)?
Answer: > 100 µM (inactive)

Question: What about the GI50 (RPMI-8226) of the same compound?
Answer: > 100 µM (inactive)

Question: What about the GI50 (OVCAR-8) of the same compound?
Answer: > 100 µM (inactive)

Question: What about the GI50 (SK-MEL-5) of the same compound?
Answer: > 100 µM (inactive)

Question: And the GI50 (M14)?
Answer: > 100 µM (inactive)

Question: And the GI50 (TK-10)?
Answer: > 100 µM (inactive)

Question: What about the GI50 (A498) of the same compound?
Answer: > 100 µM (inactive)

Question: And the GI50 (HOP-92)?
Answer: 62.4 µM (inactive)

Question: And the GI50 (SF-268)?
Answer: 40.6 µM (inactive)

Question: And the GI50 (ACHN)?
Answer: > 100 µM (inactive)

Question: What about the GI50 (UACC-257) of the same compound?
Answer: 38.9 µM (inactive)

Question: What about the GI50 (MOLT-4) of the same compound?
Answer: > 100 µM (inactive)

Question: What about the GI50 (UACC-62) of the same compound?
Answer: > 100 µM (inactive)

Question: And the GI50 (HCC 2998)?
Answer: > 100 µM (inactive)

Question: What about the GI50 (OVCAR-3) of the same compound?
Answer: 73.1 µM (inactive)

Question: Which results are given for `Cc1c2oc3c(C)ccc(C(=O)NC4C(=O)NC(C(C)C)C(=O)N5CCCC5C(=O)N(C)CC(=O)N(C)C(C(C)O)C(=O)OC4C)c3nc-2c(C(=O)NC2C(=O)NC(C(C)C)C(=O)N3CCCC3C(=O)N(C)CC(=O)N(C)C(C(C)O)C(=O)OC2C)c(N)c1=O` (stereo unspecified) (I: TVP[Sar][NMeT] / II: TVP[Sar][NMeT]; ester I:1-I:C, II:1-II:C; linker I:N-II:N via Actinocin(9to1); configuration not given here)?
Answer: GI50 (NCI-H460): 470 nM (active) and 401 nM (active); GI50 (CCRF-CEM): 1.59 µM (inactive) and 957 nM (active); GI50 (IGROV-1): 512 nM (active) and 914 nM (active); GI50 (SK-MEL-28): 583 nM (active) and 769 nM (active); GI50 (SN12C): > 1 µM (active) and 1.26 µM (inactive); GI50 (SNB-75): 313 nM (active) and 186 nM (active); GI50 (HOP-62): 1.18 µM (inactive) and 792 nM (active); GI50 (SK-MEL-2): 0.719 µM (active); GI50 (SF-539): 518 nM (active) and 533 nM (active); GI50 (NCI-H23): > 1 µM (active) and 1.41 µM (inactive); GI50 (HCT-116): 556 nM (active) and 472 nM (active); GI50 (K562): 0.586 µM (active); GI50 (Hs-578T): 1.46 µM (inactive); GI50 (MDA-N): 1.68 µM (inactive); GI50 (NCI-H522): 173 nM (active) and 255 nM (active); GI50 (RXF 393): 453 nM (active) and 820 nM (active); GI50 (MCF7): 445 nM (active) and 671 nM (active); GI50 (U-251): 495 nM (active) and 369 nM (active); GI50 (LOX IMVI): 565 nM (active) and 557 nM (active); GI50 (SW-620): > 1 µM (active) and 834 nM (active); GI50 (RPMI-8226): 0.773 µM (active); GI50 (OVCAR-8): 1.1 µM (active); GI50 (HOP-92): > 1 µM (active) and 1.9 µM (inactive); GI50 (SF-268): > 1 µM (active) and 1.63 µM (inactive); GI50 (ACHN): 1.69 µM (inactive); GI50 (MOLT-4): > 1 µM (active) and 875 nM (active); GI50 (UACC-62): 0.478 µM (active)
